In PMC3353862:
Values after ≈ are worked out from the molar mass of the structure shown.

What follows are molecules tested on bacterial protein synthesis (aminoacylation/translation system) (assay: aminoacylation/translation (A/T) assay). Conditions: A/T assay, Table 1; read-out: IC50.
Assay type: biochemical

Compound | IC50
CN(C)Cc1cc(CN2CCc3nc(-c4ccccn4)[nH]c(=O)c3C2)ccc1O [Compound 323206] | > 300000 nM
Cc1cc2c(cc1CN1CCc3nc(-c4ccccn4)[nH]c(=O)c3C1)OCO2 [Compound 323207] | > 300000 nM
CCOCc1cc(CN2CCc3nc(-c4ccccn4)[nH]c(=O)c3C2)ccc1OC [Compound 323208] | 2700 nM
COc1cc(C)c(CN2CCc3nc(-c4ccccn4)[nH]c(=O)c3C2)cc1OC [Compound 323209] | 1500 nM
O=C(COc1ccc(CN2CCc3nc(-c4ccccn4)[nH]c(=O)c3C2)cc1)N1CCCC1 [Compound 323210] | 3200 nM
O=C1CCCN1c1ccc(CN2CCc3nc(-c4ccccn4)[nH]c(=O)c3C2)cc1 [Compound 323211] | 1600 nM
Cn1c(=O)n(C)c2cc(CN3CCc4nc(-c5ccccn5)[nH]c(=O)c4C3)ccc21 [Compound 323213] | 2400 nM

What follows are molecules tested on S. aureus (assay: Broth microdilution MIC testing). Conditions: S. aureus.
Assay type: cell-based, Staphylococcus aureus

Compound | MIC S. aureus
CN(C)Cc1cc(CN2CCc3nc(-c4ccccn4)[nH]c(=O)c3C2)ccc1O [Compound 323206] | > 128 µg/mL
Cc1cc2c(cc1CN1CCc3nc(-c4ccccn4)[nH]c(=O)c3C1)OCO2 [Compound 323207] | > 128 µg/mL
CCOCc1cc(CN2CCc3nc(-c4ccccn4)[nH]c(=O)c3C2)ccc1OC [Compound 323208] | > 128 µg/mL
COc1cc(C)c(CN2CCc3nc(-c4ccccn4)[nH]c(=O)c3C2)cc1OC [Compound 323209] | > 128 µg/mL
O=C(COc1ccc(CN2CCc3nc(-c4ccccn4)[nH]c(=O)c3C2)cc1)N1CCCC1 [Compound 323210] | > 128 µg/mL
O=C1CCCN1c1ccc(CN2CCc3nc(-c4ccccn4)[nH]c(=O)c3C2)cc1 [Compound 323211] | > 128 µg/mL
Cn1c(=O)n(C)c2cc(CN3CCc4nc(-c5ccccn5)[nH]c(=O)c4C3)ccc21 [Compound 323213] | > 128 µg/mL

The molecules below were run on S. pneumoniae (assay: Broth microdilution MIC testing). Conditions: S. pneumoniae.
Assay type: cell-based, Streptococcus pneumoniae

Compound | MIC S. pneumo
CN(C)Cc1cc(CN2CCc3nc(-c4ccccn4)[nH]c(=O)c3C2)ccc1O [Compound 323206] | > 128 µg/mL
Cc1cc2c(cc1CN1CCc3nc(-c4ccccn4)[nH]c(=O)c3C1)OCO2 [Compound 323207] | > 128 µg/mL
CCOCc1cc(CN2CCc3nc(-c4ccccn4)[nH]c(=O)c3C2)ccc1OC [Compound 323208] | 32 µg/mL (≈ 78.7 µM)
COc1cc(C)c(CN2CCc3nc(-c4ccccn4)[nH]c(=O)c3C2)cc1OC [Compound 323209] | 32 µg/mL (≈ 81.5 µM)
O=C(COc1ccc(CN2CCc3nc(-c4ccccn4)[nH]c(=O)c3C2)cc1)N1CCCC1 [Compound 323210] | > 128 µg/mL
O=C1CCCN1c1ccc(CN2CCc3nc(-c4ccccn4)[nH]c(=O)c3C2)cc1 [Compound 323211] | > 128 µg/mL
Cn1c(=O)n(C)c2cc(CN3CCc4nc(-c5ccccn5)[nH]c(=O)c4C3)ccc21 [Compound 323213] | > 128 µg/mL

What follows are molecules tested on E. coli tolC mutants (assay: Broth microdilution MIC testing). Conditions: E. coli tolC mutants.
Assay type: cell-based, Escherichia coli

Compound | MIC E. coli tolC
CN(C)Cc1cc(CN2CCc3nc(-c4ccccn4)[nH]c(=O)c3C2)ccc1O [Compound 323206] | > 128 µg/mL
Cc1cc2c(cc1CN1CCc3nc(-c4ccccn4)[nH]c(=O)c3C1)OCO2 [Compound 323207] | > 128 µg/mL
CCOCc1cc(CN2CCc3nc(-c4ccccn4)[nH]c(=O)c3C2)ccc1OC [Compound 323208] | 64 µg/mL (≈ 157 µM)
COc1cc(C)c(CN2CCc3nc(-c4ccccn4)[nH]c(=O)c3C2)cc1OC [Compound 323209] | 64 µg/mL (≈ 163 µM)
O=C(COc1ccc(CN2CCc3nc(-c4ccccn4)[nH]c(=O)c3C2)cc1)N1CCCC1 [Compound 323210] | > 128 µg/mL
O=C1CCCN1c1ccc(CN2CCc3nc(-c4ccccn4)[nH]c(=O)c3C2)cc1 [Compound 323211] | > 128 µg/mL
Cn1c(=O)n(C)c2cc(CN3CCc4nc(-c5ccccn5)[nH]c(=O)c4C3)ccc21 [Compound 323213] | > 128 µg/mL

The molecules below were run on M. catarrhalis (assay: Broth microdilution MIC testing). Conditions: not given.
Assay type: cell-based, Moraxella catarrhalis

Compound | MIC M. cat
CN(C)Cc1cc(CN2CCc3nc(-c4ccccn4)[nH]c(=O)c3C2)ccc1O [Compound 323206] | > 128 µg/mL
Cc1cc2c(cc1CN1CCc3nc(-c4ccccn4)[nH]c(=O)c3C1)OCO2 [Compound 323207] | > 128 µg/mL
CCOCc1cc(CN2CCc3nc(-c4ccccn4)[nH]c(=O)c3C2)ccc1OC [Compound 323208] | 4 µg/mL (≈ 9.84 µM)
COc1cc(C)c(CN2CCc3nc(-c4ccccn4)[nH]c(=O)c3C2)cc1OC [Compound 323209] | 4 µg/mL (≈ 10.2 µM)
O=C(COc1ccc(CN2CCc3nc(-c4ccccn4)[nH]c(=O)c3C2)cc1)N1CCCC1 [Compound 323210] | > 128 µg/mL
O=C1CCCN1c1ccc(CN2CCc3nc(-c4ccccn4)[nH]c(=O)c3C2)cc1 [Compound 323211] | 64 µg/mL (≈ 159 µM)
Cn1c(=O)n(C)c2cc(CN3CCc4nc(-c5ccccn5)[nH]c(=O)c4C3)ccc21 [Compound 323213] | > 128 µg/mL

What follows are molecules tested on H. influenzae (assay: Broth microdilution MIC testing). Conditions: H. influenzae.
Assay type: cell-based, Haemophilus influenzae

Compound | MIC H. flu
CN(C)Cc1cc(CN2CCc3nc(-c4ccccn4)[nH]c(=O)c3C2)ccc1O [Compound 323206] | > 128 µg/mL
Cc1cc2c(cc1CN1CCc3nc(-c4ccccn4)[nH]c(=O)c3C1)OCO2 [Compound 323207] | > 128 µg/mL
CCOCc1cc(CN2CCc3nc(-c4ccccn4)[nH]c(=O)c3C2)ccc1OC [Compound 323208] | 64 µg/mL (≈ 157 µM)
COc1cc(C)c(CN2CCc3nc(-c4ccccn4)[nH]c(=O)c3C2)cc1OC [Compound 323209] | 64 µg/mL (≈ 163 µM)
O=C(COc1ccc(CN2CCc3nc(-c4ccccn4)[nH]c(=O)c3C2)cc1)N1CCCC1 [Compound 323210] | > 128 µg/mL
O=C1CCCN1c1ccc(CN2CCc3nc(-c4ccccn4)[nH]c(=O)c3C2)cc1 [Compound 323211] | > 128 µg/mL
Cn1c(=O)n(C)c2cc(CN3CCc4nc(-c5ccccn5)[nH]c(=O)c4C3)ccc21 [Compound 323213] | > 128 µg/mL

Each molecule was assayed on E. coli modified with PMBN (assay: Broth microdilution MIC testing). Conditions: E. coli modified with PMBN.
Assay type: cell-based, Escherichia coli

Compound | MIC E. coli +PMBP
CN(C)Cc1cc(CN2CCc3nc(-c4ccccn4)[nH]c(=O)c3C2)ccc1O [Compound 323206] | > 128 µg/mL
Cc1cc2c(cc1CN1CCc3nc(-c4ccccn4)[nH]c(=O)c3C1)OCO2 [Compound 323207] | > 128 µg/mL
CCOCc1cc(CN2CCc3nc(-c4ccccn4)[nH]c(=O)c3C2)ccc1OC [Compound 323208] | 64 µg/mL (≈ 157 µM)
COc1cc(C)c(CN2CCc3nc(-c4ccccn4)[nH]c(=O)c3C2)cc1OC [Compound 323209] | 64 µg/mL (≈ 163 µM)
O=C(COc1ccc(CN2CCc3nc(-c4ccccn4)[nH]c(=O)c3C2)cc1)N1CCCC1 [Compound 323210] | > 128 µg/mL
O=C1CCCN1c1ccc(CN2CCc3nc(-c4ccccn4)[nH]c(=O)c3C2)cc1 [Compound 323211] | > 128 µg/mL
Cn1c(=O)n(C)c2cc(CN3CCc4nc(-c5ccccn5)[nH]c(=O)c4C3)ccc21 [Compound 323213] | > 128 µg/mL

What follows are molecules tested on E. faecalis (assay: Broth microdilution MIC testing). Conditions: E. faecalis.
Assay type: cell-based, Enterococcus faecalis

Compound | MIC E. fae
CN(C)Cc1cc(CN2CCc3nc(-c4ccccn4)[nH]c(=O)c3C2)ccc1O [Compound 323206] | > 128 µg/mL
Cc1cc2c(cc1CN1CCc3nc(-c4ccccn4)[nH]c(=O)c3C1)OCO2 [Compound 323207] | > 128 µg/mL
CCOCc1cc(CN2CCc3nc(-c4ccccn4)[nH]c(=O)c3C2)ccc1OC [Compound 323208] | > 128 µg/mL
COc1cc(C)c(CN2CCc3nc(-c4ccccn4)[nH]c(=O)c3C2)cc1OC [Compound 323209] | > 128 µg/mL
O=C(COc1ccc(CN2CCc3nc(-c4ccccn4)[nH]c(=O)c3C2)cc1)N1CCCC1 [Compound 323210] | > 128 µg/mL
O=C1CCCN1c1ccc(CN2CCc3nc(-c4ccccn4)[nH]c(=O)c3C2)cc1 [Compound 323211] | > 128 µg/mL
Cn1c(=O)n(C)c2cc(CN3CCc4nc(-c5ccccn5)[nH]c(=O)c4C3)ccc21 [Compound 323213] | > 128 µg/mL
